In patent US20260140098A1, “METHOD FOR TREATING PLASMA SAMPLE CONTAINING (7aS,2'S)-2-OXO-CLOPIDOGREL AND METHOD FOR DETERMINING THE SAME” (CHENGDU SHIBEIKANG BIOMEDICAL TECHNOLOGY CO., LTD., priority 2021, published 2026):

Assay: Stability of (7aS,2′S)-2-oxo-clopidogrel in plasma, screening of TCEP dosage (Example 4)
Type: in vitro ADME
Method: S2. Plasma sample pre-treatment: taking 100 μl of the plasma, adding 5 μl of an internal standard working solution and 300 μl of acetonitrile respectively; after vortex mixing, centrifuging at 2-8° C. and 10,000 r/min for 10 min, and collecting the supernatant for later use.
S3. LC-MS/MS analysis: injecting 10 μl of the supernatant prepared from step S2 for determination, where the liquid chromatography conditions are: • the chromatographic column is Kinetex® 1.7 μm C18 100 A 100×2.1 mm; the column temperature is 40° C.; the mobile phase is acetonitrile-0.2% aqueous formic acid solution with a flow rate of 0.2 ml/min; and a gradient elution is carried out as specified in the table below:
ESI ion source, positive ion detection in multiple reaction monitoring mode (MRM); the quantitatively analyzed ions (7aS,2′S)-2-oxo-clopidogrel: m/z 338.100→155.000, IS: m/z 341.100→158.000, a capillary voltage of 4.0 KV, a cone voltage of 25 V, a desolvation gas temperature of 400° C. and a source temperature of 150° C. The optimal collision energy is 20 eV.
Blank plasma was taken and TCEP was added to prepare plasma containing TCEP at different concentrations (10, 50, 100 mg/ml). Subsequently, standard series solution of (7aS,2′S)-2-oxo-clopidogrel was added separately to prepare quality control samples with two concentrations of (7aS,2′S)-2-oxo-clopidogrel (0.1 and 12.0 ng/ml), 3 samples for each concentration. They were placed at room temperature and on ice, respectively, and the plasma samples at different placing time points were taken to examine the stability by pre-treating the plasma samples according to the method of S2 of Example 1, followed by LC/MS/MS determination according to the method of S3.

COC(=O)[C@H](c1ccccc1Cl)N1CC[C@@H]2SC(=O)C=C2C1 [(7aS,2′S)-2-oxo-clopidogrel, methyl(S)-2-(2-chlorophenyl)-2-((S)-2-oxo-2,6,7,7a-tetrahydrothieno[3,2-c]pyridin-5 (4H)-yl)acetate] showed a Measured concentration (No TCEP, theoretical 0.1 ng/mL, on ice, 0 min) of 0.0965 ng/mL, a Measured concentration (No TCEP, theoretical 0.1 ng/mL, on ice, 30 min) of 0.0842 ng/mL and a Measured concentration (No TCEP, theoretical 0.1 ng/mL, on ice, 60 min) of 0.0763 ng/mL. The Measured concentration (No TCEP, theoretical 0.1 ng/mL, on ice, 120 min) was 0.0622 ng/mL, the Measured concentration (No TCEP, theoretical 0.1 ng/mL, room temperature, 0 min) was 0.0965 ng/mL and the Measured concentration (No TCEP, theoretical 0.1 ng/mL, room temperature, 30 min) was 0.0782 ng/mL. For the same molecule, the Measured concentration (No TCEP, theoretical 0.1 ng/mL, room temperature, 60 min) was 0.0633 ng/mL, the Measured concentration (No TCEP, theoretical 0.1 ng/mL, room temperature, 120 min) was 0.0529 ng/mL and the Measured concentration (No TCEP, theoretical 12.0 ng/mL, on ice, 0 min) was 12.3 ng/mL. It also gave a Measured concentration (No TCEP, theoretical 12.0 ng/mL, on ice, 30 min) of 10.3 ng/mL, a Measured concentration (No TCEP, theoretical 12.0 ng/mL, on ice, 60 min) of 9.65 ng/mL and a Measured concentration (No TCEP, theoretical 12.0 ng/mL, on ice, 120 min) of 7.23 ng/mL. The Measured concentration (No TCEP, theoretical 12.0 ng/mL, room temperature, 0 min) was 12.3 ng/mL, the Measured concentration (No TCEP, theoretical 12.0 ng/mL, room temperature, 30 min) was 9.45 ng/mL and the Measured concentration (No TCEP, theoretical 12.0 ng/mL, room temperature, 60 min) was 8.38 ng/mL. The Measured concentration (No TCEP, theoretical 12.0 ng/mL, room temperature, 120 min) was 6.57 ng/mL, the Measured concentration (TCEP 10 mg/ml, theoretical 0.1 ng/mL, on ice, 0 min) was 0.0965 ng/mL and the Measured concentration (TCEP 10 mg/ml, theoretical 0.1 ng/mL, on ice, 30 min) was 0.0942 ng/mL. For the same molecule, the Measured concentration (TCEP 10 mg/ml, theoretical 0.1 ng/mL, on ice, 60 min) was 0.0863 ng/mL, the Measured concentration (TCEP 10 mg/ml, theoretical 0.1 ng/mL, on ice, 120 min) was 0.0782 ng/mL and the Measured concentration (TCEP 10 mg/ml, theoretical 0.1 ng/mL, room temperature, 0 min) was 0.0965 ng/mL. The Measured concentration (TCEP 10 mg/ml, theoretical 0.1 ng/mL, room temperature, 30 min) was 0.0952 ng/mL, the Measured concentration (TCEP 10 mg/ml, theoretical 0.1 ng/mL, room temperature, 60 min) was 0.0833 ng/mL and the Measured concentration (TCEP 10 mg/ml, theoretical 0.1 ng/mL, room temperature, 120 min) was 0.0729 ng/mL. The Measured concentration (TCEP 10 mg/ml, theoretical 12.0 ng/mL, on ice, 0 min) was 12.3 ng/mL, the Measured concentration (TCEP 10 mg/ml, theoretical 12.0 ng/mL, on ice, 30 min) was 11.9 ng/mL and the Measured concentration (TCEP 10 mg/ml, theoretical 12.0 ng/mL, on ice, 60 min) was 10.65 ng/mL. For the same molecule, the Measured concentration (TCEP 10 mg/ml, theoretical 12.0 ng/mL, on ice, 120 min) was 9.92 ng/mL, the Measured concentration (TCEP 10 mg/ml, theoretical 12.0 ng/mL, room temperature, 0 min) was 12.3 ng/mL and the Measured concentration (TCEP 10 mg/ml, theoretical 12.0 ng/mL, room temperature, 30 min) was 11.7 ng/mL. The Measured concentration (TCEP 10 mg/ml, theoretical 12.0 ng/mL, room temperature, 60 min) was 10.4 ng/mL, the Measured concentration (TCEP 10 mg/ml, theoretical 12.0 ng/mL, room temperature, 120 min) was 9.45 ng/mL and the Measured concentration (TCEP 50 mg/ml, theoretical 0.1 ng/mL, on ice, 0 min) was 0.0965 ng/mL. For the same molecule, the Measured concentration (TCEP 50 mg/ml, theoretical 0.1 ng/mL, on ice, 30 min) was 0.0956 ng/mL, the Measured concentration (TCEP 50 mg/ml, theoretical 0.1 ng/mL, on ice, 60 min) was 0.0932 ng/mL and the Measured concentration (TCEP 50 mg/ml, theoretical 0.1 ng/mL, on ice, 120 min) was 0.0911 ng/mL. For the same molecule, the Measured concentration (TCEP 50 mg/ml, theoretical 0.1 ng/mL, room temperature, 0 min) was 0.0965 ng/mL, the Measured concentration (TCEP 50 mg/ml, theoretical 0.1 ng/mL, room temperature, 30 min) was 0.0935 ng/mL and the Measured concentration (TCEP 50 mg/ml, theoretical 0.1 ng/mL, room temperature, 60 min) was 0.0914 ng/mL. The Measured concentration (TCEP 50 mg/ml, theoretical 0.1 ng/mL, room temperature, 120 min) was 0.0895 ng/mL, the Measured concentration (TCEP 50 mg/ml, theoretical 12.0 ng/mL, on ice, 0 min) was 12.3 ng/mL and the Measured concentration (TCEP 50 mg/ml, theoretical 12.0 ng/mL, on ice, 30 min) was 12.2 ng/mL. For the same molecule, the Measured concentration (TCEP 50 mg/ml, theoretical 12.0 ng/mL, on ice, 60 min) was 11.9 ng/mL, the Measured concentration (TCEP 50 mg/ml, theoretical 12.0 ng/mL, on ice, 120 min) was 11.4 ng/mL and the Measured concentration (TCEP 50 mg/ml, theoretical 12.0 ng/mL, room temperature, 0 min) was 12.3 ng/mL. For the same molecule, the Measured concentration (TCEP 50 mg/ml, theoretical 12.0 ng/mL, room temperature, 30 min) was 12.1 ng/mL, the Measured concentration (TCEP 50 mg/ml, theoretical 12.0 ng/mL, room temperature, 60 min) was 11.9 ng/mL and the Measured concentration (TCEP 50 mg/ml, theoretical 12.0 ng/mL, room temperature, 120 min) was 10.6 ng/mL. It also gave a Measured concentration (TCEP 100 mg/ml, theoretical 0.1 ng/mL, on ice, 0 min) of 0.0965 ng/mL, a Measured concentration (TCEP 100 mg/ml, theoretical 0.1 ng/mL, on ice, 30 min) of 0.0958 ng/mL and a Measured concentration (TCEP 100 mg/ml, theoretical 0.1 ng/mL, on ice, 60 min) of 0.0942 ng/mL. The Measured concentration (TCEP 100 mg/ml, theoretical 0.1 ng/mL, on ice, 120 min) was 0.0951 ng/mL, the Measured concentration (TCEP 100 mg/ml, theoretical 0.1 ng/mL, room temperature, 0 min) was 0.0965 ng/mL and the Measured concentration (TCEP 100 mg/ml, theoretical 0.1 ng/mL, room temperature, 30 min) was 0.0955 ng/mL. For the same molecule, the Measured concentration (TCEP 100 mg/ml, theoretical 0.1 ng/mL, room temperature, 60 min) was 0.0934 ng/mL, the Measured concentration (TCEP 100 mg/ml, theoretical 0.1 ng/mL, room temperature, 120 min) was 0.0915 ng/mL and the Measured concentration (TCEP 100 mg/ml, theoretical 12.0 ng/mL, on ice, 0 min) was 12.3 ng/mL. The Measured concentration (TCEP 100 mg/ml, theoretical 12.0 ng/mL, on ice, 30 min) was 12.4 ng/mL, the Measured concentration (TCEP 100 mg/ml, theoretical 12.0 ng/mL, on ice, 60 min) was 12.1 ng/mL and the Measured concentration (TCEP 100 mg/ml, theoretical 12.0 ng/mL, on ice, 120 min) was 11.8 ng/mL. The Measured concentration (TCEP 100 mg/ml, theoretical 12.0 ng/mL, room temperature, 0 min) was 12.3 ng/mL, the Measured concentration (TCEP 100 mg/ml, theoretical 12.0 ng/mL, room temperature, 30 min) was 12.2 ng/mL and the Measured concentration (TCEP 100 mg/ml, theoretical 12.0 ng/mL, room temperature, 60 min) was 11.9 ng/mL. For the same molecule, the Measured concentration (TCEP 100 mg/ml, theoretical 12.0 ng/mL, room temperature, 120 min) was 11.6 ng/mL and the “Stability in plasma (in words)” value (TCEP added at a concentration of 50 mg/ml or more) was “good stability”.
